Source: PubChem BioAssay (NCI)
Where “and” joins values, the source holds several entries; their conditions need not be identical. Equal values may be shown once.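 Grown in 96-well plates, cells were treated for 48 hours with each compound at five concentrations. Insufficient inhibition: endpoint recorded as highest concentration tested. At the GI50, growth is halved. At the TGI there is no net growth.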

Legend:
Test in all cases: growth of human tumour cells (NCI), 48 h
NCI-H522 lung = system: NCI-H522 lung
RPMI-8226 leukemia = system: RPMI-8226 leukemia
SK-MEL-28 melanoma = system: SK-MEL-28 melanoma
HT29 colon = system: HT29 colon
SR leukemia = system: SR leukemia
HL-60(TB) leukemia = system: HL-60(TB) leukemia
SNB-19 CNS = system: SNB-19 CNS
SW-620 colon = system: SW-620 colon
A549 NSCLC = system: A549 NSCLC
HOP-92 NSCLC = system: HOP-92 NSCLC
M14 melanoma = system: M14 melanoma
786-0 renal = system: 786-0 renal
HS 578T breast = system: HS 578T breast
MOLT-4 leukemia = system: MOLT-4 leukemia
HOP-62 NSCLC = system: HOP-62 NSCLC
OVCAR-3 ovarian = system: OVCAR-3 ovarian
MDA-MB-231 breast = system: MDA-MB-231 breast
OVCAR-4 ovarian = system: OVCAR-4 ovarian
PC-3 prostate = system: PC-3 prostate
MCF7 breast = system: MCF7 breast
SF-295 CNS = system: SF-295 CNS
HCT-116 colon = system: HCT-116 colon
TK-10 renal = system: TK-10 renal
T-47D breast = system: T-47D breast
KM12 colon = system: KM12 colon
CAKI-1 renal = system: CAKI-1 renal
OVCAR-8 ovarian = system: OVCAR-8 ovarian
UO-31 renal = system: UO-31 renal
OVCAR-5 ovarian = system: OVCAR-5 ovarian
UACC-62 melanoma = system: UACC-62 melanoma
SK-MEL-2 melanoma = system: SK-MEL-2 melanoma
NCI/ADR-RES ovarian = system: NCI/ADR-RES ovarian
ACHN renal = system: ACHN renal
COLO 205 colon = system: COLO 205 colon
NCI-H460 lung = system: NCI-H460 lung
MALME-3M melanoma = system: MALME-3M melanoma
IGROV1 ovarian = system: IGROV1 ovarian
DU-145 prostate = system: DU-145 prostate
EKVX NSCLC = system: EKVX NSCLC
HCT-15 colon = system: HCT-15 colon
SK-MEL-5 melanoma = system: SK-MEL-5 melanoma
NCI-H23 lung = system: NCI-H23 lung
U251 CNS = system: U251 CNS
HCC-2998 colon = system: HCC-2998 colon
MDA-MB-435 = system: MDA-MB-435
BT-549 breast = system: BT-549 breast
UACC-257 melanoma = system: UACC-257 melanoma
SK-OV-3 ovarian = system: SK-OV-3 ovarian
K-562 leukemia = system: K-562 leukemia
SF-268 CNS = system: SF-268 CNS
CCRF-CEM leukemia = system: CCRF-CEM leukemia
NCI-H226 lung = system: NCI-H226 lung
SN12C renal = system: SN12C renal
A498 renal = system: A498 renal
LOX IMVI melanoma = system: LOX IMVI melanoma
SF-539 CNS = system: SF-539 CNS
SNB-75 CNS = system: SNB-75 CNS
RXF 393 renal = system: RXF 393 renal

C[C@]12CC[C@H](OC3OC(O)C(O)C(O)C3O)C=C1CCC1C2CC[C@]2(C)[C@@H](c3ccc(=O)oc3)CC[C@]12O (stereo not given in full) was tested, and the GI50 (NCI-H522 lung) was 2.86 nM, the TGI (NCI-H522 lung) was 11.4 nM and the GI50 (RPMI-8226 leukemia) was 4.39 nM. For the same compound, the TGI (RPMI-8226 leukemia) was 74.8 nM, the GI50 (SK-MEL-28 melanoma) was 5.85 nM and 6.06 nM and the TGI (SK-MEL-28 melanoma) was 20 nM and 13.8 nM. For the same compound, the GI50 (HT29 colon) was 4.52 nM and 5 nM, the TGI (HT29 colon) was 17.6 nM and 9.16 nM and the GI50 (SR leukemia) was 2.21 nM. For the same compound, the TGI (SR leukemia) was 6.19 nM, the GI50 (HL-60(TB) leukemia) was 2.27 nM and the TGI (HL-60(TB) leukemia) was 5.12 nM. For the same compound, the GI50 (SNB-19 CNS) was 6.88 nM and 5 nM, the TGI (SNB-19 CNS) was 50.6 nM and 28.7 nM and the GI50 (SW-620 colon) was 4.45 nM and 5 nM. The TGI (SW-620 colon) was 25.4 nM and 15.4 nM, the GI50 (A549 NSCLC) was 1.78 nM and the TGI (A549 NSCLC) was 3.58 nM. The GI50 (HOP-92 NSCLC) was 3.94 nM and 7.24 nM, the TGI (HOP-92 NSCLC) was 34.2 nM and 29.2 nM and the GI50 (M14 melanoma) was 14.8 nM and 9.18 nM. For the same compound, the TGI (M14 melanoma) was 29.9 nM and 19.9 nM, the GI50 (786-0 renal) was 2.59 nM and 5 nM and the TGI (786-0 renal) was 7 nM and 5.73 nM. For the same compound, the GI50 (HS 578T breast) was 2.24 nM, the TGI (HS 578T breast) was 50.6 nM and the GI50 (MOLT-4 leukemia) was 2.34 nM. The TGI (MOLT-4 leukemia) was 5.3 nM, the GI50 (HOP-62 NSCLC) was 1.78 nM and the TGI (HOP-62 NSCLC) was 3.28 nM. The GI50 (OVCAR-3 ovarian) was 3.8 nM and 5 nM, the TGI (OVCAR-3 ovarian) was 12.1 nM and 6.38 nM and the GI50 (MDA-MB-231 breast) was 19.4 nM and 15.6 nM. For the same compound, the TGI (MDA-MB-231 breast) was 100 nM and 60.2 nM, the GI50 (OVCAR-4 ovarian) was 2.98 nM and the TGI (OVCAR-4 ovarian) was 16.7 nM. For the same compound, the GI50 (PC-3 prostate) was 3.84 nM, the TGI (PC-3 prostate) was 22.1 nM and the GI50 (MCF7 breast) was 3.42 nM and 5 nM. For the same compound, the TGI (MCF7 breast) was 65.4 nM and 14.4 nM, the GI50 (SF-295 CNS) was 3.16 nM and 5 nM and the TGI (SF-295 CNS) was 80.9 nM and 13 nM. The GI50 (HCT-116 colon) was 3.62 nM and 5 nM, the TGI (HCT-116 colon) was 11.9 nM and 6.71 nM and the GI50 (TK-10 renal) was 5.08 nM. The TGI (TK-10 renal) was 42.2 nM, the GI50 (T-47D breast) was 4.04 nM and 5 nM and the TGI (T-47D breast) was 19.8 nM and 16.6 nM. For the same compound, the GI50 (KM12 colon) was 4.87 nM and 5 nM, the TGI (KM12 colon) was 25.8 nM and 26.6 nM and the GI50 (CAKI-1 renal) was 3.57 nM and 5 nM. The TGI (CAKI-1 renal) was 24.8 nM and 17.3 nM, the GI50 (OVCAR-8 ovarian) was 3.67 nM and 5 nM and the TGI (OVCAR-8 ovarian) was 16.8 nM and 7.2 nM. The GI50 (UO-31 renal) was 4.64 nM and 5 nM, the TGI (UO-31 renal) was 16.8 nM and 8.11 nM and the GI50 (OVCAR-5 ovarian) was 8.01 nM and 5 nM. The TGI (OVCAR-5 ovarian) was 25.2 nM and 11.9 nM, the GI50 (UACC-62 melanoma) was 6.26 nM and 7.83 nM and the TGI (UACC-62 melanoma) was 21.4 nM and 17.6 nM. The GI50 (SK-MEL-2 melanoma) was 3.53 nM and 7.62 nM, the TGI (SK-MEL-2 melanoma) was 10.3 nM and 17.7 nM and the GI50 (NCI/ADR-RES ovarian) was 2.64 nM and 5 nM. The TGI (NCI/ADR-RES ovarian) was 7.55 nM and 6.47 nM, the GI50 (ACHN renal) was 3.49 nM and 5 nM and the TGI (ACHN renal) was 11.9 nM and 5.78 nM. For the same compound, the GI50 (COLO 205 colon) was 15.3 nM and 7.93 nM, the TGI (COLO 205 colon) was 35.8 nM and 17.1 nM and the GI50 (NCI-H460 lung) was 2.42 nM and 5 nM. For the same compound, the TGI (NCI-H460 lung) was 6.33 nM and 5.12 nM, the GI50 (MALME-3M melanoma) was 3.28 nM and 5 nM and the TGI (MALME-3M melanoma) was 9.89 nM and 11.8 nM. For the same compound, the GI50 (IGROV1 ovarian) was 4.64 nM and 5 nM, the GI50 (DU-145 prostate) was 2.77 nM and the TGI (DU-145 prostate) was 6.98 nM. The GI50 (EKVX NSCLC) was 2.86 nM and 5 nM, the TGI (EKVX NSCLC) was 9.07 nM and 5.58 nM and the GI50 (HCT-15 colon) was 4.65 nM and 5 nM. The TGI (HCT-15 colon) was 21.8 nM and 15.5 nM, the GI50 (SK-MEL-5 melanoma) was 1.96 nM and 5 nM and the TGI (SK-MEL-5 melanoma) was 4.28 nM and 6.32 nM. For the same compound, the GI50 (NCI-H23 lung) was 2.93 nM, the TGI (NCI-H23 lung) was 11.4 nM and the GI50 (U251 CNS) was 3.82 nM and 5 nM. For the same compound, the TGI (U251 CNS) was 14.1 nM and 9.03 nM, the GI50 (HCC-2998 colon) was 4.67 nM and 5 nM and the TGI (HCC-2998 colon) was 25.2 nM and 16.5 nM. For the same compound, the GI50 (MDA-MB-435) was 4.03 nM and 5.78 nM, the TGI (MDA-MB-435) was 21.2 nM and 19.2 nM and the GI50 (BT-549 breast) was 3.59 nM and 5 nM. The TGI (BT-549 breast) was 11.8 nM and 6.59 nM, the GI50 (UACC-257 melanoma) was 10.6 nM and 5.17 nM and the TGI (UACC-257 melanoma) was 24.2 nM and 11.5 nM. For the same compound, the GI50 (SK-OV-3 ovarian) was 3.65 nM and 5 nM, the TGI (SK-OV-3 ovarian) was 12 nM and 6.59 nM and the GI50 (K-562 leukemia) was 4.06 nM. The TGI (K-562 leukemia) was 18.1 nM, the GI50 (SF-268 CNS) was 3.73 nM and 5 nM and the TGI (SF-268 CNS) was 12.8 nM and 6.07 nM. For the same compound, the GI50 (CCRF-CEM leukemia) was 5 nM, the TGI (CCRF-CEM leukemia) was 50000 nM and the GI50 (NCI-H226 lung) was 2.62 nM and 5.27 nM. For the same compound, the TGI (NCI-H226 lung) was 8.62 nM and 11.3 nM, the GI50 (SN12C renal) was 3.04 nM and 5 nM and the TGI (SN12C renal) was 17 nM and 9.65 nM. For the same compound, the GI50 (A498 renal) was 3.45 nM and 5 nM, the TGI (A498 renal) was 48.3 nM and 23.7 nM and the GI50 (LOX IMVI melanoma) was 3.33 nM and 5 nM. For the same compound, the TGI (LOX IMVI melanoma) was 12 nM and 7.7 nM, the GI50 (SF-539 CNS) was 2.62 nM and 5 nM and the TGI (SF-539 CNS) was 6.21 nM and 5.68 nM. The GI50 (SNB-75 CNS) was 3.21 nM and 5 nM, the TGI (SNB-75 CNS) was 15.7 nM and 6.16 nM and the GI50 (RXF 393 renal) was 1.79 nM. It also gave a TGI (RXF 393 renal) of 3.9 nM.
